Data on 91 compounds can be found in ChEMBL document CHEMBL1142978, “Probing the anticancer activity of nucleoside analogues: a QSAR model approach using an internally consistent training set” (J Med Chem, 2007).

pIC50: −log10 of the molar value. Bounds are passed on as bounds.

A short description of this experiment: Cytotoxicity against mouse L1210/0 cells after 48 hrs. It is filed as cell-based. As to conditions: Mus musculus, L1210/0, 48 h.

One may read the pIC50 as the negative decadic logarithm of the IC50, by convention in mol/L. Read a low pIC50 as a high IC50. On to `Cc1cn([C@@H]2O[C@H](CO)[C@@H](O)[C@@H]2O)c(=O)[nH]c1=O`, for which the pIC50 is 4.61. In the case of `C=C(Cl)c1cn([C@H]2C[C@H](O)[C@@H](CO)O2)c(=O)[nH]c1=O`, the negative-log IC50 (pIC50) was 5.78. Compound `O=C1OC(C(O)Cn2cc(C(F)(F)F)c(=O)[nH]c2=O)C(OCc2ccccc2)=C1OCc1ccccc1` (stereo unspecified) gave a pIC50 of 4.30. In turn, `O=C1OC(C(O)Cn2cc(F)c(=O)[nH]c2=O)C(OCc2ccccc2)=C1OCc1ccccc1` (stereo unspecified) gave a pIC50 of 3.85. Compared with the last compound, the pIC50 is 0.45 log units lower.

As for `O=c1[nH]c(=O)n([C@H]2C[C@H](O)[C@@H](CO)O2)cc1[N+](=O)[O-]`, the pIC50 is 6.89. Under `CO[C@@H]1OC[C@@H](OC(C)=O)[C@@H](OC(C)=O)[C@]1(F)n1ccc(=O)[nH]c1=O` stands 4.26. `Nc1nc2c(nc(I)n2COCCO)c(=O)[nH]1` showed a pIC50 of 3.95.

The compound `CC1=C(c2cn([C@H]3C[C@H](O)[C@@H](CO)O3)c(=O)[nH]c2=O)C(=O)c2ccccc2C1=O` gave a pIC50 of 4.16.

Consider `Cc1ccc(S(=O)(=O)/C=C/[C@H]2O[C@@H](n3cnc4c(N)ncnc43)[C@@H](O)[C@H]2O)cc1`, for which the pIC50 was 4.27. Under `Nc1ncnc2c1ncn2[C@@H]1O[C@H](/C=C\Br)[C@H](O)[C@@H]1O` stands 3.98. With `Nc1ncnc2c1ncn2C[C@@H]1C[C@H](O)c2ccccc21` the figure was under 3.70; with `CC(=O)OC(C)Cn1cnc2c(Cl)nc(I)nc21` (stereo unspecified), 4.89.

As to `C=Cc1cn([C@H]2C[C@H](O)[C@@H](CO)O2)c(=O)[nH]c1=O`, the negative logarithm of the IC50 (pIC50) is 4.85. With `CC(=O)OCCOCn1cnc2c(S)nc(F)nc21` the figure was 4.40; with `C=C(Br)[C@H]1O[C@@H](n2cnc3c(N)ncnc32)[C@@H](O)[C@H]1O`, 4.60; with `COc1ccccc1-c1ncnc2c1ncn2C[C@@H]1C[C@H](O)c2ccccc21`, under 3.70.

For `O=C(CI)NCc1cn([C@H]2C[C@H](O)[C@@H](CO)O2)c(=O)[nH]c1=O`, the pIC50 is 3.97. Turning to `[N-]=[N+]=NCc1cn([C@H]2C[C@H](O)[C@@H](CO)O2)c(=O)[nH]c1=O`, the pIC50 was 3.91.

As for `O=c1[nH]c(=O)n(C[C@@H]2C[C@H](O)c3ccccc32)cc1Br`, the pIC50 was under 3.70. `CC(=O)OCCOCn1cnc2c(Cl)nc(I)nc21` gave a pIC50 of 5.07.

In turn, `N#CSc1cn([C@H]2C[C@H](O)[C@@H](CO)O2)c(=O)[nH]c1=O` showed a pIC50 of 4.10. Under `Oc1ncnc2c1ncn2C[C@@H]1C[C@H](O)c2ccccc21` stands under 3.70.

Consider `CC1=C(C)C(=O)C(c2cn([C@H]3C[C@H](O)[C@@H](CO)O3)c(=O)[nH]c2=O)=CC1=O`, for which the negative-log IC50 (pIC50) is 3.95. Under `Cc1ccc(-c2ncnc3c2ncn3C[C@@H]2C[C@H](CO)c3ccccc32)cc1` stands 4.81; under `Nc1ncnc2c1ncn2[C@@H]1O[C@H](CO)[C@H](F)[C@@H]1O`, 5.23. As for `OC[C@@H]1C[C@H](Cn2cnc3c(NC4CCC4)ncnc32)c2c(-c3ccccc3)nnc(-c3ccccc3)c21`, the negative-log IC50 (pIC50) is 4.04. This pIC50 lies 1.19 log units lower than the previous one. Under `Cc1ccc(C(=O)/C=C/c2cc(=O)[nH]c(=O)n2COCCO)cc1` stands 4.55. The compound `Nc1ccn([C@@H]2O[C@H](CO)[C@H](F)[C@@H]2O)c(=O)n1` showed a pIC50 of 3.80. With `COc1ccccc1C(=O)/C=C/c1cc(=O)[nH]c(=O)n1COCCO` the figure was 4.82; with `COc1ccc(C(=O)/C=C/c2cc(=O)[nH]c(=O)n2COCCO)cc1`, 4.48; with `O=C(/C=C/c1cc(=O)[nH]c(=O)n1COCCO)c1ccccc1`, 4.36. Under `Nc1nc(Cl)c2nnn([C@H]3CCCC[C@H]3CO)c2n1` stands 4.02. In the case of `C#Cc1cn([C@H]2C[C@H](O)[C@@H](CO)O2)c(=O)[nH]c1=O`, the pIC50 was 6.44. This pIC50 is 2.42 log units higher than that of the compound before. For the compound `CO[C@@H]1OC(n2cc(F)c(=O)[nH]c2=O)[C@H](OC(C)=O)[C@@H](OC(C)=O)[C@H]1F` (stereo partly specified), the pIC50 was 4.47.

As to `COc1ncnc2c1ncn2C[C@@H]1C[C@H](O)c2ccccc21`, the pIC50 was under 3.70.

On to `Nc1nc(NC2CC2)c2ncn(CCOCP(=O)(O)O)c2n1`, for which the negative logarithm of the IC50 (pIC50) was 4.99. `O=c1[nH]c(=O)n([C@H]2C[C@H](O)[C@@H](CO)O2)cc1/C=C/I` showed a pIC50 of 4.19. Compared with the last compound, the pIC50 is 0.80 log units lower. The compound `OC[C@@H]1CCC[C@@H]1Cn1cnc2c(Cl)ncnc21` had a pIC50 of 4.28.

As to `CC(=O)OC(C)Cn1cnc2c(=S)[nH]c(N)nc21` (stereo unspecified), the pIC50 is 3.89. With `O=c1[nH]c(=O)n([C@H]2C[C@H](O)[C@@H](CO)O2)cc1/C=N/O` the figure was 4.81; with `CC1(C)[C@@H](Cn2cnc3c(O)nc(N)nc32)CC[C@@]1(C)CO`, under 3.70; with `CC1(C)[C@@H](Cn2nnc3c(Cl)nc(N)nc32)CC[C@@]1(C)CO`, 4.35. Under `COC1=C(OC)/C(=C/C(n2cnc3c(N)ncnc32)P(=O)(O)O)OC1=O` (stereo unspecified) stands 4.94; under `CC(=O)OCCOCn1cnc2c(Cl)ncnc21`, 3.79; under `COC1=C(OC)/C(=C/Cn2cnc3c(Cl)ncnc32)OC1=O`, 4.85.

On to `O=C1O/C(=C\Cn2cc(F)c(=O)[nH]c2=O)C(OCc2ccccc2)=C1OCc1ccccc1`, for which the negative-log IC50 (pIC50) was 5.29. Under `O=C1O/C(=C\Cn2cc(Br)c(=O)[nH]c2=O)C(OCc2ccccc2)=C1OCc1ccccc1` stands 5.12. With `O=C1C(O)=C(O)O/C1=C\Cn1cc(F)c(=O)[nH]c1=O` the figure was 5.29.

`CC1(C)[C@@H](CO)CC[C@@]1(C)Cn1cnc2c(Cl)ncnc21` had a pIC50 of 4.37. This pIC50 lies 0.92 log units lower than the previous one. Under `OCCOCn1cnc2c(S)nc(F)nc21` stands 3.77; under `Nc1ncnc2c1ncn2[C@H]1C[C@@H](O)[C@@H](C=O)O1`, 4.57; under `Nc1ncnc2c1ncn2[C@@H]1O[C@H](/C=C\Cl)[C@H](O)[C@@H]1O`, 3.84. Under `O=C1OC(=CCn2cnc3c(-n4cccc4)ncnc32)C(OCc2ccccc2)=C1OCc1ccccc1` stands 3.96. Under `O=c1[nH]cnc2c1nnn2C1C[C@H](CO)[C@@H](CO)[C@@H]1CO` (stereo partly specified) stands under 3.70; under `CC1(C)[C@H](CCO)C[C@@H]1n1cnc2c(Cl)nc(N)nc21`, 3.98. `CC1(C)[C@@H](Cn2cnc3c(N)nc(N)nc32)CC[C@@]1(C)CO` gave a pIC50 of under 3.70. With `CC1=C(C)C(=O)C(c2cn([C@H]3C[C@H](O)[C@@H](CO)O3)c(=O)[nH]c2=O)=C(C)C1=O`, the pIC50 is 3.76.

The compound `CC(=O)OC(C)Cn1cnc2c(Cl)nc(F)nc21` (stereo unspecified) showed a negative logarithm of the IC50 (pIC50) of 4.43. With `CC1NC(=O)C(F)=CN1[C@@H]1O[C@H](COP2OCCCO2)[C@@H](O)C1=O` (stereo partly specified) the figure was 6.12. Under `O=C1NCN([C@@H]2O[C@H](COP3OCCC(O)O3)[C@@H](O)C2=O)C=C1F` (stereo partly specified) stands 6.08. With `COC1=C(OCc2ccc([N+](=O)[O-])cc2)C(=O)O/C1=C\Cn1cnc2c(Cl)ncnc21` the figure was 4.87.

Compound `CCCCCC(=O)O[C@@H]1[C@H](OC(=O)CCCCC)CO[C@@H](OC)[C@@]1(F)n1ccc(=O)[nH]c1=O` gave a pIC50 of 4.40. Against the preceding compound, the pIC50 is 0.47 log units lower. Under `CC(=O)OCCOCn1cnc2c(=S)[nH]c(N)nc21` stands 5.49; under `CC1(C)[C@@H](Cn2cnc3c(Cl)nc(N)nc32)CC[C@@]1(C)CO`, 4.30.

As for `C#C[C@H]1O[C@@H](n2cnc3c(N)ncnc32)[C@@H](O)[C@H]1O`, the negative-log IC50 (pIC50) is 5.92. Under `COc1ccc(-c2ncnc3c2ncn3C[C@@H]2C[C@H](CO)c3ccccc32)cc1` stands 4.75; under `O=c1[nH]c(=O)n([C@H]2C[C@H](O)[C@@H](CO)O2)cc1CO`, 5.04. For the compound `O=Cc1cn([C@H]2C[C@H](O)[C@@H](CO)O2)c(=O)[nH]c1=O`, the pIC50 is 5.97. The compound `CC(=O)OCCOCn1cnc2c(Cl)nc(Cl)nc21` gave a pIC50 of 4.41. With `OC[C@@H]1C[C@H](Cn2cnc3c(Cl)ncnc32)c2c(-c3ccccc3)nnc(-c3ccccc3)c21` the figure was under 3.70. With `OC[C@@H]1C[C@H](Cn2cnc3c(NC4CC4)ncnc32)c2c(-c3ccccc3)nnc(-c3ccccc3)c21`, the negative-log IC50 (pIC50) was under 3.70. Under `Nc1nc2c(ncn2[C@@H]2O[C@H](CO)[C@H](F)[C@@H]2O)c(=O)[nH]1` stands 4.76; under `Nc1nc(Cl)c2nnn(C[C@H]3CC[C@@H](CO)C3)c2n1`, 3.77; under `OC[C@H]1C[C@@H](Cn2cnc3c(-c4ccccc4)ncnc32)c2ccccc21`, 4.55. Under `O=C1O/C(=C/Cn2cnc3ncnc(Cl)c32)C(OCc2ccccc2)=C1OCc1ccccc1` stands 5.39; under `O[C@H]1C[C@@H](Cn2cnc3c(-c4ccccc4)ncnc32)c2ccccc21`, under 3.70; under `OC[C@H]1C[C@@H](Cn2cnc3c(-c4ccc(Cl)cc4)ncnc32)c2ccccc21`, 5.07. With `O=C1NCN([C@@H]2O[C@H](COP3OCCC(F)(F)O3)[C@@H](O)C2=O)C=C1F` (stereo partly specified) the figure was 8.00. In the case of `O=C1OC(C(O)Cn2ccc(=O)[nH]c2=O)C(OCc2ccccc2)=C1OCc1ccccc1` (stereo unspecified), the pIC50 is 3.80.

`CC1(C)[C@@H](Cn2ccc(=O)[nH]c2=O)CC[C@@]1(C)CO` showed a pIC50 of under 3.70.

The compound `O[C@H]1C[C@@H](Cn2cnc3c(Cl)ncnc32)c2ccccc21` showed a pIC50 of under 3.70.

For `Nc1ncnc2c1ncn2C1CC(O)C(/C=N/O)O1` (stereo unspecified), the negative-log IC50 (pIC50) was 4.76.

For `Nc1ncnc2c1ncn2[C@@H]1O[C@H](/C=C\I)[C@H](O)[C@@H]1O`, the pIC50 is 4.37. With `CC1(C)[C@@H](Cn2nnc3c(N)nc(N)nc32)CC[C@@]1(C)CO` the figure was under 3.70; with `COC1=C(OC)/C(=C/C(n2cnc3c(Cl)ncnc32)P(=O)(OC)OC)OC1=O` (stereo unspecified), 4.42; with `Cc1ccc(C(=O)/C=C/c2cc(O)nc(O)n2)cc1`, 3.74. For `O=C1O/C(=C\Cn2cc(Cl)c(=O)[nH]c2=O)C(OCc2ccccc2)=C1OCc1ccccc1`, the pIC50 was 4.91. Compared with the last compound, the pIC50 is 1.17 log units higher. With `O=C1O/C(=C\Cn2cnc3c(Cl)ncnc32)C(OCc2ccccc2)=C1OCc1ccccc1` the figure was 4.94; with `O=C1O/C(=C\Cn2cc(I)c(=O)[nH]c2=O)C(OCc2ccccc2)=C1OCc1ccccc1`, 5.12; with `O=C1O/C(=C\Cn2ccc(=O)[nH]c2=O)C(OCc2ccccc2)=C1OCc1ccccc1`, 4.89. Compound `O=C1O/C(=C\Cn2cc(C(F)(F)F)c(=O)[nH]c2=O)C(OCc2ccccc2)=C1OCc1ccccc1` showed a pIC50 of 5.70. Against the preceding compound, the pIC50 is 0.81 log units higher.
